Results on four compounds are retold here after patent US20130065868A1, “ANXIOYTIC MARCGRAVIACEAE COMPOSITIONS CONTAINING BETULINIC ACID, BETULINIC ACID DERIVATIVES, AND METHODS” (UNIVERSITY OF OTTAWA, priority 2002, published 2013).

Series [1] in a line: Elevated plus maze, betulinic acid vs structurally related compounds (Example 11). Type of series: in vivo. The text has this: This example compares the anxiolytic activity of betulinic acid and some other structurally related compounds. Results are illustrated in FIG. 7.
The subject of a further series is Sprague-Dawley rats. Briefly: Rat social interaction paradigm. Format: in vivo. The settings on record: 0.5 mg/kg i.p. The text has this:
The rat social interaction paradigm takes advantage of rats' natural behaviour in novel situations. The more ‘anxious’ the animals are, the less likely they are engage in social interaction with the cohort. Anxiolytic drugs typically increase the amount of time rodents spend socially interacting with one another. (Pile, S. E., (1980). The use of social interaction as a method for detecting anxiolytic activity of chlor-diazepoxide-like drugs. In Current Protocols in Neuroscience (pp. 8.3.3-8.3.4), John-Wiley & Sons).
The social-interaction (SI) test arena constituted of a 60×60 cm white Plexiglas floor, enclosed by 35-cm high walls of the same material. The arena was surrounded by black curtain, and a closed circuit camera was positioned above the setup, to feed live video signals to the experimenter seated in a separate room, for behavioral assessment and recording.
Each rat was placed alone in the SI box for 7.5 min daily for 2 days, in order to familiarize the animals with the test environment. Animals were paired according to their body weights (less than 10 g difference) and each pair was randomly assigned to one of the treatment groups. Rats received either betulinic acid 0.5 mg/kg i.p., betulinic acid methyl ester (methyl betulinate) 0.5 mg/kg i.p., or peanut oil only (control). Drugs were injected (i.p.) 60 min prior to testing. Tests were carried out at three intervals, 1 h, 2.5 h and 4 h after injection. Each pair was tested at the 1-h interval, then new pairs from within the same drug group were formed for the 2.5-h interval and then again at the 4-h interval (new pairs were formed for each test interval, to control for the potential confounding effect partner familiarity). […] The behaviors scored included the amount of time the pairs spent interacting together (sniffing, grooming and chasing) as well as the number of times the animals initiated contact.

A further series relates to Sprague Dawley rats. Briefly: Locomotor activity after chronic administration. The note with it: chronic 0.5 mg/kg daily orally, one night 5 p.m. to 7 a.m. (FIG. 11). Type of series: in vivo, rat. On the procedure:
Test animals and drug treatments were as in Example 14. Locomotor activity was recorded for one night (5 p.m. to 7 a.m. the following morning) in the control as well as in the betulinic acid and methyl ester of betulinic acid exposed groups. Locomotor activity was monitored using infrared sensors located on the roof of the animals' cage. Eight independent sensors monitored activity of animals according to the number of quadrants traversed.

Series [2] is described as follows: Weight gain over chronic treatment. The settings on record: rats, chronic 0.5 mg/kg daily orally (FIG. 12). Format: in vivo, rat.
Another series in a line: Solubility. Format: physicochemical. The settings on record: in water and in methanol.

As to `CC1(C)CC[C@]2(C)CC[C@]3(C)C(=CC[C@@H]4[C@@]5(C)CC[C@H](O)C(C)(C)[C@@H]5CC[C@]43C)[C@@H]2C1` [beta-amyrin], the “anxiolytic activity on the elevated plus maze paradigm” value in series [1] (5 mg/kg (FIG. 7)) is recorded as “neither beta-amyrin (5 mg/kg) nor oleanolic acid (0.5 mg/kg), two compounds structurally related to betulinic acid, displayed any anxiolytic activity”.
As to `C=C(C)[C@@H]1CC[C@]2(C(=O)OC)CC[C@]3(C)[C@H](CC[C@@H]4[C@@]5(C)CC[C@H](O)C(C)(C)[C@@H]5CC[C@]43C)[C@@H]12` [betulinic acid methyl ester, Methyl betulinate], the “frequency of initiated contact” value in the series with Sprague-Dawley rats is given as “not significant”. For the same compound, the “amount of social interaction (interaction time) compared to the control group” value with Sprague-Dawley rats (data collapsed across 1 h, 2.5 h and 4 h (FIG. 8)) was “significantly increased the amount of social interaction”. In addition, the “increase of social interaction compared to betulinic acid” value in the series with Sprague-Dawley rats (p<0.05) is “significantly more effective at increasing social interaction than betulinic acid”. Further, the “adverse effect on locomotor activity or pattern” value with Sprague Dawley rats is recorded as “neither betulinic acid nor the methyl ester of betulinic acid had an adverse effect on locomotor activity or pattern”. Moreover, in series [2], the “effect of chronic drug treatment on weight gain” value is “did not seem to affect weight gain in a significant manner”.
Take `CC1(C)CC[C@]2(C(=O)O)CC[C@]3(C)C(=CC[C@@H]4[C@@]5(C)CC[C@H](O)C(C)(C)[C@@H]5CC[C@]43C)[C@@H]2C1` [oleanolic acid]: in series [1] (0.5 mg/kg), the “anxiolytic activity on the elevated plus maze paradigm” value is “neither beta-amyrin (5 mg/kg) nor oleanolic acid (0.5 mg/kg), two compounds structurally related to betulinic acid, displayed any anxiolytic activity”.
On to `C=C(C)C1CCC2(C(=O)[O-])CCC3(C)C(CCC4C5(C)CCC(O)C(C)(C)C5CCC43C)C12.[Na+]` (centres unmarked) [sodium salt of betulinic acid], for which the “solubility relative to pure betulinic acid” value in the series “Solubility” was “greater in water and in methanol than pure betulinic acid”.
